Experimental data: patent publication US12077503B2, “Substituted cyclic amides and their use as herbicides” (FMC CORPORATION, priority 2015, dated 2024)

Key:
Format in all cases: in vivo
[1] = system: barnyardgrass (Echinochloa crus-galli); assay: Test G Pre-Emergence Protocol; conditions: Echinochloa crus-galli, pre-emergence, 312 h, evaluated after 13 days; for pest or weed control at 15.625 g/ha: 15.625 g ai/ha, read-out: Barnyard grass damage rating (100=total damage to plant; 0=no damage to plant); for pest or weed control at 62.5 g/ha: 62.5 g ai/ha, 100=total damage to plant, 0=no damage to plant, read-out: plant damage rating, Barnyardgrass; for pest or weed control at 250 g/ha: 250 g ai/ha, read-out: Barnyardgrass damage rating (100=total damage to plant; 0=no damage to plant)
Outline: (§1)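 Test compound in 0.5% Tween 20 acetone/water (50:50) was applied at three rates (15.625, 62.5, 250 g/ha) to soil sown one day earlier. After 13 days plants were scored for injury, where 0 means unaffected and 100 means completely damaged.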

corn (Zea mays) [2] = assay: Test G Pre-Emergence Protocol; conditions: Zea mays, pre-emergence, 312 h, evaluated after 13 days; for plant injury at 15.625 g/ha: 15.625 g ai/ha; for plant injury at 15.625 g/ha / plant injury at 250 g/ha: read-out: Corn damage rating (100=total damage to plant; 0=no damage to plant); for plant injury at 62.5 g/ha: 62.5 g ai/ha, 100=total damage to plant, 0=no damage to plant, read-out: plant damage rating, Corn; for plant injury at 250 g/ha: 250 g ai/ha
Outline: as §1

[3] = system: giant foxtail (Setaria faberi); assay: Test G Pre-Emergence Protocol; conditions: Setaria faberi, pre-emergence, 312 h, evaluated after 13 days; for pest or weed control at 15.625 g/ha: 15.625 g ai/ha; for pest or weed control at 15.625 g/ha / pest or weed control at 250 g/ha: read-out: Foxtail, Giant damage rating (100=total damage to plant; 0=no damage to plant); for pest or weed control at 62.5 g/ha: 62.5 g ai/ha, 100=total damage to plant, 0=no damage to plant, read-out: plant damage rating, Foxtail, Giant; for pest or weed control at 250 g/ha: 250 g ai/ha
Outline: as §1

[4] = system: ivy-leaved morning glory (Ipomoea hederacea); assay: Test G Pre-Emergence Protocol; conditions: Ipomoea, pre-emergence, 312 h, evaluated after 13 days; for pest or weed control at 15.625 g/ha: 15.625 g ai/ha, read-out: Morning-glory, Ivy-leaved damage rating (100=total damage to plant; 0=no damage to plant); for pest or weed control at 62.5 g/ha: 62.5 g ai/ha, 100=total damage to plant, 0=no damage to plant, read-out: plant damage rating, Morningglory, Ivy-leaved; for pest or weed control at 250 g/ha: 250 g ai/ha, read-out: Morningglory, Ivy-leaved damage rating (100=total damage to plant; 0=no damage to plant)
Outline: as §1

[5] = system: redroot pigweed (Amaranthus retroflexus); assay: Test G Pre-Emergence Protocol; conditions: Amaranthus retroflexus, pre-emergence, 312 h, evaluated after 13 days; for pest or weed control at 15.625 g/ha: 15.625 g ai/ha; for pest or weed control at 15.625 g/ha / pest or weed control at 250 g/ha: read-out: Pigweed, Redroot damage rating (100=total damage to plant; 0=no damage to plant); for pest or weed control at 62.5 g/ha: 62.5 g ai/ha, 100=total damage to plant, 0=no damage to plant, read-out: plant damage rating, Pigweed, Redroot; for pest or weed control at 250 g/ha: 250 g ai/ha
Outline: as §1

[6] = system: velvetleaf (Abutilon theophrasti); assay: Test G Pre-Emergence Protocol; conditions: Abutilon theophrasti, pre-emergence, 312 h, evaluated after 13 days; for pest or weed control at 15.625 g/ha: 15.625 g ai/ha; for pest or weed control at 15.625 g/ha / pest or weed control at 250 g/ha: read-out: Velvetleaf damage rating (100=total damage to plant; 0=no damage to plant); for pest or weed control at 62.5 g/ha: 62.5 g ai/ha, 100=total damage to plant, 0=no damage to plant, read-out: plant damage rating, Velvetleaf; for pest or weed control at 250 g/ha: 250 g ai/ha
Outline: as §1

[7] = system: barnyardgrass (Echinochloa crus-galli); assay: Test G Post-Emergence Protocol; conditions: Echinochloa crus-galli, post-emergence, 312 h; for pest or weed control at 15.625 g/ha: 15.625 g ai/ha, evaluated after 13 days (100=total damage to plant; 0=no damage to plant), read-out: Barnyardgrass damage rating; for pest or weed control at 62.5 g/ha: 62.5 g ai/ha, read-out: Barnyardgrass damage rating (100=total damage to plant; 0=no damage to plant); for pest or weed control at 62.5 g/ha / pest or weed control at 250 g/ha: evaluated after 13 days; for pest or weed control at 250 g/ha: 250 g ai/ha, read-out: damage to plant, Barnyardgrass (100=total damage to plant; 0=no damage to plant)
Outline: (§2)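 Foliar application was made 8 days after sowing, using an aqueous spray of the active in acetone/water (50:50) with 0.5% Tween 20, at doses of 15.625, 62.5 or 250 g/ha. Injury was assessed 13 days later, where 100 meant the plant was fully damaged.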

corn (Zea mays) [8] = assay: Test G Post-Emergence Protocol; conditions: Zea mays, post-emergence, 312 h; for plant injury at 15.625 g/ha: 15.625 g ai/ha, evaluated after 13 days (100=total damage to plant; 0=no damage to plant), read-out: Corn damage rating; for plant injury at 62.5 g/ha: 62.5 g ai/ha, read-out: Corn damage rating (100=total damage to plant; 0=no damage to plant); for plant injury at 62.5 g/ha / plant injury at 250 g/ha: evaluated after 13 days; for plant injury at 250 g/ha: 250 g ai/ha, read-out: damage to plant, Corn (100=total damage to plant; 0=no damage to plant)
Outline: as §2

[9] = system: giant foxtail (Setaria faberi); assay: Test G Post-Emergence Protocol; conditions: Setaria faberi, post-emergence, 312 h; for pest or weed control at 15.625 g/ha: 15.625 g ai/ha, evaluated after 13 days (100=total damage to plant; 0=no damage to plant), read-out: Foxtail, Giant damage rating; for pest or weed control at 62.5 g/ha: 62.5 g ai/ha, read-out: Foxtail, Giant damage rating (100=total damage to plant; 0=no damage to plant); for pest or weed control at 62.5 g/ha / pest or weed control at 250 g/ha: evaluated after 13 days; for pest or weed control at 250 g/ha: 250 g ai/ha, read-out: damage to plant, Foxtail, Giant (100=total damage to plant; 0=no damage to plant)
Outline: as §2

[10] = system: ivy-leaved morning glory (Ipomoea hederacea); assay: Test G Post-Emergence Protocol; conditions: Ipomoea, post-emergence, 312 h; for pest or weed control at 15.625 g/ha: 15.625 g ai/ha, evaluated after 13 days (100=total damage to plant; 0=no damage to plant), read-out: Morningglory, Ivy-leaved damage rating; for pest or weed control at 62.5 g/ha: 62.5 g ai/ha, read-out: Morningglory, Ivy-leaved damage rating (100=total damage to plant; 0=no damage to plant); for pest or weed control at 62.5 g/ha / pest or weed control at 250 g/ha: evaluated after 13 days; for pest or weed control at 250 g/ha: 250 g ai/ha, read-out: damage to plant, Morningglory, Ivy-leaved (100=total damage to plant; 0=no damage to plant)
Outline: as §2

[11] = system: redroot pigweed (Amaranthus retroflexus); assay: Test G Post-Emergence Protocol; conditions: Amaranthus retroflexus, post-emergence, 312 h; for pest or weed control at 15.625 g/ha: 15.625 g ai/ha, evaluated after 13 days (100=total damage to plant; 0=no damage to plant), read-out: Pigweed, Redroot damage rating; for pest or weed control at 62.5 g/ha: 62.5 g ai/ha, read-out: Pigweed, Redroot damage rating (100=total damage to plant; 0=no damage to plant); for pest or weed control at 62.5 g/ha / pest or weed control at 250 g/ha: evaluated after 13 days; for pest or weed control at 250 g/ha: 250 g ai/ha, read-out: damage to plant, Pigweed, Redroot (100=total damage to plant; 0=no damage to plant)
Outline: as §2

[12] = system: velvetleaf (Abutilon theophrasti); assay: Test G Post-Emergence Protocol; conditions: Abutilon theophrasti, post-emergence, 312 h; for pest or weed control at 15.625 g/ha: 15.625 g ai/ha, evaluated after 13 days (100=total damage to plant; 0=no damage to plant), read-out: Velvetleaf damage rating; for pest or weed control at 62.5 g/ha: 62.5 g ai/ha, read-out: Velvetleaf damage rating (100=total damage to plant; 0=no damage to plant); for pest or weed control at 62.5 g/ha / pest or weed control at 250 g/ha: evaluated after 13 days; for pest or weed control at 250 g/ha: 250 g ai/ha, read-out: damage to plant, Velvetleaf (100=total damage to plant; 0=no damage to plant)
Outline: as §2

| SMILES | pest or weed control at 15.625 g/ha [1] | pest or weed control at 62.5 g/ha [1] | pest or weed control at 250 g/ha [1] | plant injury at 15.625 g/ha (corn (Zea mays) [2]) | plant injury at 62.5 g/ha (corn (Zea mays) [2]) | plant injury at 250 g/ha (corn (Zea mays) [2]) | pest or weed control at 15.625 g/ha [3] | pest or weed control at 62.5 g/ha [3] | pest or weed control at 250 g/ha [3] | pest or weed control at 15.625 g/ha [4] | pest or weed control at 62.5 g/ha [4] | pest or weed control at 250 g/ha [4] | pest or weed control at 15.625 g/ha [5] | pest or weed control at 62.5 g/ha [5] | pest or weed control at 250 g/ha [5] | pest or weed control at 15.625 g/ha [6] | pest or weed control at 62.5 g/ha [6] | pest or weed control at 250 g/ha [6] | pest or weed control at 15.625 g/ha [7] | pest or weed control at 62.5 g/ha [7] | also measured |
| --- | --- | --- | --- | --- | --- | --- | --- | --- | --- | --- | --- | --- | --- | --- | --- | --- | --- | --- | --- | --- | --- |
| Cc1nonc1NC(=O)[C@@H]1C(=O)N(C)C[C@H]1c1ccc(C(F)(F)F)cc1 (racemic) [Compound 1597] | 0% | 0% | 0% | 0% | 0% | 0% | 0% | 0% | 0% | 0% | 0% | 0% | 0% | 0% | 0% | 0% | 0% | 0% | 0% | 0% | pest or weed control at 250 g/ha [7]: 0%; plant injury at 15.625 g/ha (corn (Zea mays) [8]): 0%; plant injury at 62.5 g/ha (corn (Zea mays) [8]): 0%; plant injury at 250 g/ha (corn (Zea mays) [8]): 0%; pest or weed control at 15.625 g/ha [9]: 0%; pest or weed control at 62.5 g/ha [9]: 0%; pest or weed control at 250 g/ha [9]: 0%; pest or weed control at 15.625 g/ha [10]: 0%; pest or weed control at 62.5 g/ha [10]: 0%; pest or weed control at 250 g/ha [10]: 0%; pest or weed control at 15.625 g/ha [11]: 0%; pest or weed control at 62.5 g/ha [11]: 0%; pest or weed control at 250 g/ha [11]: 0%; pest or weed control at 15.625 g/ha [12]: 0%; pest or weed control at 62.5 g/ha [12]: 0%; pest or weed control at 250 g/ha [12]: 0% |
| CN1C[C@H](c2ccc(C(F)F)cc2)[C@@H](C(=O)Nc2ccccc2F)C1=O (racemic) [Compound 1454] | 20% | 60% | 70% | 0% | 10% | 60% | 50% | 70% | 90% | 20% | 10% | 10% | 0% | 0% | 70% | 0% | 20% | 60% | 0% | 20% | pest or weed control at 250 g/ha [7]: 20%; plant injury at 15.625 g/ha (corn (Zea mays) [8]): 10%; plant injury at 62.5 g/ha (corn (Zea mays) [8]): 20%; plant injury at 250 g/ha (corn (Zea mays) [8]): 30%; pest or weed control at 15.625 g/ha [9]: 30%; pest or weed control at 62.5 g/ha [9]: 60%; pest or weed control at 250 g/ha [9]: 60%; pest or weed control at 15.625 g/ha [10]: 10%; pest or weed control at 62.5 g/ha [10]: 10%; pest or weed control at 250 g/ha [10]: 10%; pest or weed control at 15.625 g/ha [11]: 0%; pest or weed control at 62.5 g/ha [11]: 20%; pest or weed control at 250 g/ha [11]: 20%; pest or weed control at 15.625 g/ha [12]: 0%; pest or weed control at 62.5 g/ha [12]: 0%; pest or weed control at 250 g/ha [12]: 10% |
| CN1C[C@@H](c2ccc(C(F)(F)F)cc2)[C@H](C(=O)Nc2nnc(C(F)(F)F)o2)C1=O (racemic) [Compound 1604] | 0% | 0% | 0% | 0% | 0% | 0% | 0% | 0% | 0% | 0% | 0% | 0% | 0% | 0% | 0% | 0% | 0% | 0% | 0% | 0% | pest or weed control at 250 g/ha [7]: 0%; plant injury at 15.625 g/ha (corn (Zea mays) [8]): 0%; plant injury at 62.5 g/ha (corn (Zea mays) [8]): 0%; plant injury at 250 g/ha (corn (Zea mays) [8]): 0%; pest or weed control at 15.625 g/ha [9]: 0%; pest or weed control at 62.5 g/ha [9]: 0%; pest or weed control at 250 g/ha [9]: 0%; pest or weed control at 15.625 g/ha [10]: 0%; pest or weed control at 62.5 g/ha [10]: 0%; pest or weed control at 250 g/ha [10]: 0%; pest or weed control at 15.625 g/ha [11]: 0%; pest or weed control at 62.5 g/ha [11]: 0%; pest or weed control at 250 g/ha [11]: 0%; pest or weed control at 15.625 g/ha [12]: 0%; pest or weed control at 62.5 g/ha [12]: 0%; pest or weed control at 250 g/ha [12]: 0% |
